According to patent US12708630B2, “Combined therapy of 4′-thio-5-aza-2′-deoxycytidine and Venetoclax” (PINOTBIO, INC., priority 2021, dated 2026):
Where two headings read alike, the source gives them in different places.

Key:
[1] = target: T1, DNMT1 (Homo sapiens, UniProt P26358); assay: DNMT1 protein Western blotting in cancer cell lines; type: cell-based; set-up: endogenous in cells; host or cells: MV4-11, KG-1a, CCRF-CEM, NCI-H23, HCT-116, IGROV-1 (also HL-60, THP-1); conditions: for DNMT1 protein (Western blotting): AML cell lines MV4-11 and KG-1a
T1 sequence (P26358 whole entry): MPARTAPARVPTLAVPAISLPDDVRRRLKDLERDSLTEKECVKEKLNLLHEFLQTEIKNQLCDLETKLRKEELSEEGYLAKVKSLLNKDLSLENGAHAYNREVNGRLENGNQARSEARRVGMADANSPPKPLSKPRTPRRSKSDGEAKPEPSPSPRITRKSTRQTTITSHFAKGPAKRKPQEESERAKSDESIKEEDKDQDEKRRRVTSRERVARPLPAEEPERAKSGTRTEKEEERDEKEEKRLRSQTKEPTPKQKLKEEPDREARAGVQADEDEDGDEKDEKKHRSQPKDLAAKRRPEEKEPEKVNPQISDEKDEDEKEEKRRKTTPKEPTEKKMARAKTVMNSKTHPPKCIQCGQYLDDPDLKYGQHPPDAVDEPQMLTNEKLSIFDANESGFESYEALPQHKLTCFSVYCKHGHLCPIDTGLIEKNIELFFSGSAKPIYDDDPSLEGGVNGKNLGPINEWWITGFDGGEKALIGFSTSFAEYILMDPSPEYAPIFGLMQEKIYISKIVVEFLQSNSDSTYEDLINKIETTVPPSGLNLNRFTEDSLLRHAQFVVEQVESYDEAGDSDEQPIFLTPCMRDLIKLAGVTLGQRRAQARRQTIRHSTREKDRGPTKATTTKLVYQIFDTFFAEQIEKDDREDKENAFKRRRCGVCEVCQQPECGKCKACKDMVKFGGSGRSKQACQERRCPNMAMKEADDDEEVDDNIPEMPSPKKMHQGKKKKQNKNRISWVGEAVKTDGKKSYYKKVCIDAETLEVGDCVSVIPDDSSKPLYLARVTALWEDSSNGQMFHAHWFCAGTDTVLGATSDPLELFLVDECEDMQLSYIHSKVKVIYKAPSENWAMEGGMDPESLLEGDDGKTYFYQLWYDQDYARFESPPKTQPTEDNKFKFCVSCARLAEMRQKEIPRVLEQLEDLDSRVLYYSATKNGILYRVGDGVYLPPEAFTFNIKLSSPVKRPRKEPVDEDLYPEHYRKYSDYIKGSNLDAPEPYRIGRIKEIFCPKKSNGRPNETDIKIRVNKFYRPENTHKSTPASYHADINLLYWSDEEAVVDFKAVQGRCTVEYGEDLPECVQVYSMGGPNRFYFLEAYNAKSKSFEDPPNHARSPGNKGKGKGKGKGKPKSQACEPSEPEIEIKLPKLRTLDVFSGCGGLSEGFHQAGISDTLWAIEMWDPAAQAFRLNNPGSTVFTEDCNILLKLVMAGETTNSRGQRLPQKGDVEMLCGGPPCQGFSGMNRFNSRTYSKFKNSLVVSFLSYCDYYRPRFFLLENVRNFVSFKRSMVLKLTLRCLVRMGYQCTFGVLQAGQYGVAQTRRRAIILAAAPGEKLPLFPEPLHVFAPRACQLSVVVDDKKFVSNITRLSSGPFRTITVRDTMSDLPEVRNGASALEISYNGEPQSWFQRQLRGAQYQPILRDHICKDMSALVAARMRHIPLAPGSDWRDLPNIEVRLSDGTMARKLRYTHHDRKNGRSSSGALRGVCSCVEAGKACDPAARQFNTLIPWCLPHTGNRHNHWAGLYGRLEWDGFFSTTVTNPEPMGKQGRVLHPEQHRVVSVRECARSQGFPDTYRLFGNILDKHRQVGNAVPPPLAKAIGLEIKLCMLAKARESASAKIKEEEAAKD

[2] = test system: ALL-Patient Derived Xenografts; assay: ALL-Patient Derived Xenografts (PDX); type: in vivo; conditions: doses tolerated up to 1.5 mg/kg (0.5, 1, 1.5, 2 mg/kg tested)
Procedure: To determine the efficacy of Aza-T-dCyd in another indication, T-ALL, we evaluated the efficacy of Aza-T-dCyd in a patient-derived ALL animal model.
Aza-T-dCyd was administered at doses of 0.5, 1, 1.5, and 2 mg/kg in ALL-Patient Derived Xenografts (PDX), with T-dCyd (DNMT1 inhibitor) used as a comparative control.

[3] = test system: DMS53; assay: drug activity profiling cytotoxicity; type: cell-based; conditions: Homo sapiens, DMS-53; DMS53 cell line, Lung (SCLC); read-out: Aza-T-dCyd IC50
Method in brief: (§1)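 Broad drug activity profiling (200 cell lines) evaluates how cytotoxic Aza-T-dCyd is in each line.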

[4] = test system: BE(2)C; assay: drug activity profiling cytotoxicity; type: cell-based; conditions: Homo sapiens; BE(2)C cell line, CNS (Neuroblastoma); read-out: Aza-T-dCyd IC50
Method in brief: as §1

[5] = test system: SW579; assay: drug activity profiling cytotoxicity; type: cell-based; conditions: SW579 cell line, Endocrine (Thyroid); read-out: Aza-T-dCyd IC50
Method in brief: as §1

[6] = test system: SK-PN-DW; assay: drug activity profiling cytotoxicity; type: cell-based; conditions: SK-PN-DW cell line, Sarcoma; read-out: Aza-T-dCyd IC50
Method in brief: as §1

[7] = test system: NALM-6; assay: drug activity profiling cytotoxicity; type: cell-based; conditions: Homo sapiens; NALM-6 cell line, ALL; read-out: Aza-T-dCyd IC50
Method in brief: as §1

[8] = test system: AGS; assay: drug activity profiling cytotoxicity; type: cell-based; conditions: Homo sapiens; AGS cell line, Stomach; read-out: Aza-T-dCyd IC50
Method in brief: as §1

[9] = test system: SW403; assay: drug activity profiling cytotoxicity; type: cell-based; conditions: Homo sapiens, SW-403; SW403 cell line, Colon; read-out: Aza-T-dCyd IC50
Method in brief: as §1

[10] = Pharmacokinetic evaluation in Mice (Table 3); type: in vivo; conditions: for AUC(0-inf) / AUC(0-t) / Cmax / Tmax / half-life: mouse, in vivo, Mice; for half-life: read-out: T½ (converted)
Procedure: Aza-T-dCyd was administered orally and intravenously at various concentrations to Mice, Rats and Dogs to determine the PK profile.

[11] = target: DNMT3B (Homo sapiens, UniProt Q9UBC3); assay: DNMT3B expression in HL-60 xenograft tumor samples; type: in vivo, mice; set-up: tumor samples were collected on day 11 to determine the expression of DNMT1, DNMT3A, and DNMT3B; from tissue; host or cells: HL-60 xenograft tumour samples (mouse host); conditions: 2 mg/kg NTX-301 or 0.75 mg/kg Decitabine intraperitoneally, day 11
Procedure: As the efficacy of DNMT1 inhibitors correlates with their selective profile for targeting DNMT1 and the de novo methyltransferases DNMT3A and DNMT3B, we confirmed the expression of DNMT1, DNMT3A, and DNMT3B in the Aza-T-dCyd and Decitabine treated groups in this xenograft model (FIG. 27).
In the HL-60 xenograft mice model, 2 mg/kg of NTX-301 (Aza-T-dCyd) or 0.75 mg/kg of Decitabine were administered intraperitoneally, and then tumor samples were collected on day 11 to determine the expression of DNMT1, DNMT3A, and DNMT3B. […] On the other hand, the expression levels of DNMT3A and DNMT3B were different in the Aza-T-dCyd and Decitabine treatment groups.

[12] = target: T1, DNMT1; assay: Western blotting of Molm13 xenograft cancer tissues, DNMT1; type: in vivo; set-up: endogenous in cells; conditions: after administration
[13] = GLP rat Toxicology study; type: in vivo, rats
Procedure: GLP-Tox studies have been conducted in rats and dogs, with 2 cycles of QD×5d at PO.
In the GLP rat Toxicology study, rats received 2.5, 5, and 10 mg/kg of Aza-T-dCyd (15, 30, and 60 mg/m2) per day.

[14] = test system: MDS/AML model; assay: AUC exposure versus efficacy in the MDS/AML model; type: in vivo

Nc1ncn([C@H]2CC(O)[C@@H](CO)S2)c(=O)n1 (stereo partly drawn) [Aza-T-dCyd, 4′-thio-5-aza-2′-deoxycytidine]
DNMT1 protein (Western blotting) ([1]; 20 nM): completely reduced DNMT1 | DNMT1 protein (Western blotting) [1]: reduced DNMT1 protein in a concentration-dependent manner | DNMT1 inhibition ([1]; CCRF-CEM (ALL cell line) cells, FIG. 12): inhibits DNMT1 | DNMT1 inhibition ([1]; CCRF-CEM (ALL) and solid cancer cell line): can inhibit DNMT1 in a concentration-dependent manner | DNMT1 inhibition ([1]; KG-1a (AML cell line) cells, FIG. 11): inhibits DNMT1 | DNMT1 inhibition ([1]; MV4-11 (AML cell line) cells, different concentrations, FIG. 10): inhibits DNMT1 | DNMT1 intracellular protein expression ([1]; MV4-11, HL-60 and KG-1a cells, 72 hours): expression of DNMT1 was inhibited | DNMT1 inhibition ([1]; NCI-H23, HCT-116 and IGROV-1 cell lines, FIG. 13): inhibits DNMT1 | DNMT1 inhibition ([1]; THP-1 cells, different concentrations): induced DNMT1 inhibition in a dose-dependent manner | efficacy in pediatric ALL PDX [2]: highly effective | IC50 [3]: 4220 nM | IC50 [4]: 373 nM | IC50 [5]: 1050 nM | IC50 [6]: 847 nM | IC50 [7]: 33.8 nM | IC50 [8]: 58.4 nM | IC50 [9]: 619 nM | oral bioavailability ([10]; mice): orally bioavailable | AUC(0-inf) ([10]; Table 3, IV 1 mg/kg): 269 ng·h/mL | AUC(0-t) ([10]; Table 3, IV 1 mg/kg): 257 ng·h/mL | Cmax ([10]; Table 3, IV 1 mg/kg): 341 ng/mL | Tmax ([10]; Table 3, IV 1 mg/kg): 4.98 min | half-life ([10]; Table 3, IV 1 mg/kg): 30.2 min | AUC(0-inf) ([10]; Table 3, PO 0.5 mg/kg): 68.5 ng·h/mL | AUC(0-t) ([10]; Table 3, PO 0.5 mg/kg): 62.4 ng·h/mL | Cmax ([10]; Table 3, PO 0.5 mg/kg): 51.8 ng/mL | Tmax ([10]; Table 3, PO 0.5 mg/kg): 18 min | half-life ([10]; Table 3, PO 0.5 mg/kg): 42.1 min | AUC(0-inf) ([10]; Table 3, PO 1 mg/kg): 112 ng·h/mL | AUC(0-t) ([10]; Table 3, PO 1 mg/kg): 106 ng·h/mL | Cmax ([10]; Table 3, PO 1 mg/kg): 103 ng/mL | Tmax ([10]; Table 3, PO 1 mg/kg): 18 min | half-life ([10]; Table 3, PO 1 mg/kg): 37.7 min | AUC(0-inf) ([10]; Table 3, PO 3 mg/kg): 931 ng·h/mL | AUC(0-t) ([10]; Table 3, PO 3 mg/kg): 919 ng·h/mL | Cmax ([10]; Table 3, PO 3 mg/kg): 576 ng/mL | Tmax ([10]; Table 3, PO 3 mg/kg): 27 min | half-life ([10]; Table 3, PO 3 mg/kg): 49.4 min | AUC(0-inf) ([10]; Table 3, PO 10 mg/kg): 2600 ng·h/mL | AUC(0-t) ([10]; Table 3, PO 10 mg/kg): 2580 ng·h/mL | Cmax ([10]; Table 3, PO 10 mg/kg): 1930 ng/mL | Tmax ([10]; Table 3, PO 10 mg/kg): 27 min | half-life ([10]; Table 3, PO 10 mg/kg): 66.6 min | DNMT3B expression level in tumor samples [11]: significantly reduced | DNMT1 in cancer tissues (Western blotting) [12]: strongly inhibited DNMT1 and DNMT3B in a concentration-dependent manner | Testicular toxicity, including decreased sperm count ([13]; rat): reversible upon discontinuation | Toxicity target organs ([13]; rat, 2.5, 5 and 10 mg/kg per day): bone marrow, thymus, heart, and testes | AUC value at which efficacy is shown ([14]; MDS/AML model): 60 ng·h/mL | AUC value of best therapeutic efficacy ([14]; MDS/AML model): 200 to 250 ng·h/mL | AUC of best efficacy relative to the HNSTD ([14]; most sensitive species): about 25% | AUC of best efficacy relative to the NOAEL value ([14]; most sensitive species): about 50%
